Where a SMILES comes first, the peptide text is derived from it. Where no end group is shown, it is not given here. [ ]: non-standard residue; d: D form. Tyr(3,5-Br2) = N[C@@H](Cc1cc(Br)c(O)c(Br)c1)C(=O)O

Data set [1] can be described thus: solubility test. The data set is classed as physicochemical. The conditions noted are these: for aspect of solution after cooling: 100 mM solution; for aspect of solution after heating: 100 mM solutions (5 mg in 50 µl); for solubility: buffers at pH 3, 7, and 12 (10 mM) and pure water. As to the method: The isoelectric point (calculated on http://web.expasy.org/compute-pi/) of SDSYGAP (SEQ ID no. 6), comparative, and an oligopeptide according to the present invention, i.e., SDS-Y(3,5 Br)-GAP is 3.8. Three buffers at pH 3, 7, and 12 (10 mM concentration) and pure water were used as solvent for the two oligopeptides.

The test system of data set [2] is Pseudokirchneriella sub capitata. The procedure: An ecotoxicity test on Pseudokirchneriella sub capitata was performed to evaluate I% (inhibition percentage effect) and IC50 (concentration which determines the 50% inhibition of growth on the population) of the halogenated peptide SDS-Y(3,5 Br)-GAP.
The halogenated peptide SDS-Y(3,5 Br)-GAP was dissolved in water at 100 mg/l and tested at the following concentrations: 50 mg/l, 25 mg/l, 12.5 mg/l and 6.25 mg/l. Each sample was tested in triplicate.
After 72 hours of incubation with the sample or controls, a spectrophotometric test was performed at 670nm as a measure of cell density.

Data set [3] has as its system HeLa (Human cervical cancer cells). The experiment in a line: CellTiter-Glo Luminescent Cell Viability Assay. In kind it is cell-based. The conditions noted are these: 24 hours incubation. As to the method:
HeLa (Human cervical cancer cells) were grown in DMEM supplemented with 1 mM sodium pyruvate, 10 mM HEPES buffer, 100 U/mL penicillin, 0.1 mg/mL streptomycin, 2 mM glutamine and 10% FBS (hereafter referred to as complete medium), at 37°C in a 5% CO2 humidified atmosphere. Cells were splitted the day before seeding and used within eight passages. The cells were seeded at a density of 7000 cell/cm^2. For evaluating cell viability, the day after the seeding the cell medium was replaced with medium containing the wild type or the halogenated oligopeptides and cells were incubated for 24 hours.

A short description of data set [4]: Dynamic Light Scattering aging study (autocorrelation lag time). As to conditions: 10 mM in water. The data set is classed as physicochemical. The procedure: Dynamic Light Scattering measurements were performed on an ALV/CGS-3 Platform-based Goniometer System equipped with an ALV-7004 correlator and an ALV/CGS-3 goniometer. The signal was detected by an ALV-Static and Dynamic Enhancer detection unit. The light source was the second harmonic of a diode-pumped Coherent Innova Nd:YAG laser (λ = 532 nm), linearly polarized in the vertical direction. Measurements were performed at 25°C. Approximately 1 ml of sample solution was transferred into the cylindrical Hellma scattering cell.
The dynamic information on structures present in the peptide solutions were derived from the normalized autocorrelation function g2 (q, τ) of the scattered intensity, which is measured according to g2 (q, τ) = (〈I(q, t)I(q,t+τ)〉)/((〈I(q, t)〉)^2) [formula] where q is the scattering vector, τ is the relaxation time and I is the scattered intensity. Higher relaxation times correspond to larger self-assembled structures. […] Results are reported in Figure 7, as graphs showing the autocorrelation functions of wild type (panel A) or halogenated (panel B) oligopeptide 10 mM in water at 90°C. The autocorrelation functions at 90°C show increasing Lag Time, i.e., increasing dimensions of the self-assembled structures, over time. Table 1 summarizes and compares the results, showing that halogenated oligopeptide form bigger structures compared to the wild type one. This is a further indication that bromine atoms play a role in the aggregation behavior of the peptide sequence. The same aging study was performed in buffer at pH 7, with similar results (data not shown).

Consider `C[C@H](NC(=O)CNC(=O)[C@H](Cc1cc(Br)c(O)c(Br)c1)NC(=O)[C@H](CO)NC(=O)[C@H](CC(=O)O)NC(=O)[C@@H](N)CO)C(=O)N1CCC[C@H]1C(=O)O` [SDS-Y(3,5 Br)-GAP] (H-SDS[Tyr(3,5-Br2)]GAP-OH), for which, in data set [1], the “aspect of solution after cooling” value is on record as “milky”, the “aspect of solution after heating” value was “completely clear” and the solubility result is reported as “good solubility properties in all the tested conditions”. The ecotoxicity result in data set [2] is on record as “not ecotoxic”. For the same compound, the “IC50 (concentration which determines the 50% inhibition of growth on the population)” value in data set [2] (72 hours of incubation) stood at 54 mg/L. Moreover, in data set [3], the cell viability result is listed as “not toxic even at high concentrations”.

Consider SDSYGAP [SDSYGAP], for which the “aspect of solution after cooling” value in data set [1] is listed as “still clear”. Also, the “aspect of solution after heating” value in data set [1] is on record as “completely clear”. For the same compound, the solubility result in data set [1] was “good solubility properties in all the tested conditions”. For the same compound, the Lag time was 1.512 ms in data set [4] (aging time t=0), 3.826 ms in data set [4] (aging time t=1 week), 2.859 ms in data set [4] (aging time t=24 h) and 1.919 ms in data set [4] (aging time t=48 h). The cell viability entry in data set [3] is “not toxic even at high concentrations”.

Values taken from patent publication EP3724209B1, “ELASTOMERIC PEPTIDE” (Politecnico di Milano, priority 2017, dated 2019).
